Where two headings read alike, the source gives them in different places.
How the values were obtained:
Assay in all cases: PTP IC50 assay, fluorescent substrate DiFMUP
Format in all cases: biochemical
PTP SHP2 = target: T1, PTP SHP2 (Homo sapiens, UniProt Q06124); details: DiFMUP as substrate, 25° C.; read-out: PTP IC50 SHP2
T1 construct: The catalytic domain was amplified using the following oligonucleotides; made in house; host or cells: Sf-9 insect cells (pFastBac-G2T)
T1 sequence (Q06124 247-517 limits assumed): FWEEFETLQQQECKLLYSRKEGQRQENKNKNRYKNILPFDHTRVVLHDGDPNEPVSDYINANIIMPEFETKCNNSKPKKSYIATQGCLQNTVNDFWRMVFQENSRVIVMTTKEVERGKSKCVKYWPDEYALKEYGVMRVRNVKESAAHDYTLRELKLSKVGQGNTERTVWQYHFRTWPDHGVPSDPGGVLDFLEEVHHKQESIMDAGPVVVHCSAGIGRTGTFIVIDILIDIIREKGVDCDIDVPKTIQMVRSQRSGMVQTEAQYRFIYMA
Source text: SHP-2 cDNA was used as described earlier (Vogel W., et al.,1993, Science, 259:1611-4). The catalytic domain was amplified using the following oligonucleotides 5′oligo: 5′-[…]-3′ (SEQ ID NO: 2) 3′oligo: 5′-[…]-3′ (SEQ ID NO: 3) and subsequently subcloned into BamH1-Xba-1 sites. It was then ligated into pfas Bac-G2T BamH1-Xba-1 sites.
(§1) The following in vitro assay procedure is preferred to determine the level of activity and effect of the different compounds of the present invention on one or more of the PTPs. Similar assays can be designed along the same lines for any PTP using techniques well known in the art.
(§2) The catalytic assays described herein are performed in a 96-well format. The general procedure begins with the determination of PTP optimal pH using a three-component buffer system that minimizes ionic strength variations across a wide range of buffer pH. Next, the Michaelis-Menten constant, or Km, is determined for the substrate 6,8-difluoro-4-methylumbelliferyl phosphate (DiFMUP). This Km value is subsequently used as the substrate reaction concentration for compound screening. Finally, the test PTP is exposed to varying concentrations of compound for fifteen minutes and allowed to react with substrate for ten minutes. The results are plotted as percent inhibition versus compound concentration and the IC50 interpolated from the plot.
(§3) All assays were performed using DiFMUP as substrate. The optimum pH and substrate Km was determined for each PTP used.
(§4) PTPase activity was assayed at 25° C. in a 100-μl reaction mixture containing an appropriate concentration of DiFMUP as substrate. The reaction was initiated by addition of the purified PTP and quenched after 10 min by addition of 1% H2O2/100 mM NaCl. The non-enzymatic hydrolysis of the substrate was corrected by measuring the control without the addition of the enzyme. The amount of DiFMU produced was determined from the increase in the fluorescence (360 nm excitation/460 nm emission) over that of background in the absence of PTPase. To determine the kinetic parameter, Km, the initial velocities were measured at various substrate concentrations and the data were fitted to the Michaelis equation where velocity=(Vmax*[S])/(Km+[S]), and [S]=substrate reaction concentration.
(§5) The effect of the compounds on PTP was evaluated at 25° C. using DiFMUP as substrate. PTP was pre-incubated for fifteen minutes with various concentrations of compound. Substrate was then added at a fixed concentration (usually equal to the Km previously calculated). After 10 minutes, the reaction was quenched. The hydrolysis of DiFMUP was followed as described above. The percent inhibition was calculated as follows: Percent Inhibition=[(control signal−compound signal)/control signal]×100%. The IC50 was then determined by interpolation of a percent inhibition versus compound concentration plot.
(§6) Plasmids designed for bacterial GST-PTP fusion protein expression were derived by insertion of PCR-generated human PTP fragments into pGEX vectors (Pharmacia Biotech). Several of these constructs were then used to subclone phosphatases into pFastBac-1 for expression in Sf-9 insect cells. Oligonucleotides used for the initial amplification of PTP genes are as described above. The cDNAs were prepared using the Gilbo BRL superscript preamplification system on RNAs purchased from Clontech.

PTP EPSILON = target: T2, PTP EPSILON (Homo sapiens, UniProt P23469)
T2 construct: made in house; host or cells: Sf-9 insect cells (pFastBac-G2T); a pGEX 6P-1 construct also existed
Source text: The PTPepsilon cDNA was amplified from human placenta single-strand cDNA (Clontech RNA) using the following oligonucleotides: 5′oligo: 5′-[…]-3′ (SEQ ID NO: 6) 3′oligo: 5′-[…]-3′ (SEQ ID NO: 7) After cloning this PCR product into the Bam HI/Xho I sites of pGEX 6P-1, this phosphatase was subcloned using the same restriction sites in pFastBac-G2T.
as §1, §2, §3, §4, §5, §6

PTP 1B = target: T3, PTP 1B (Homo sapiens, UniProt P18031)
T3 construct: made in house; host or cells: Sf-9 insect cells (pFastBac-G2T)
T3 sequence (P18031 1-435): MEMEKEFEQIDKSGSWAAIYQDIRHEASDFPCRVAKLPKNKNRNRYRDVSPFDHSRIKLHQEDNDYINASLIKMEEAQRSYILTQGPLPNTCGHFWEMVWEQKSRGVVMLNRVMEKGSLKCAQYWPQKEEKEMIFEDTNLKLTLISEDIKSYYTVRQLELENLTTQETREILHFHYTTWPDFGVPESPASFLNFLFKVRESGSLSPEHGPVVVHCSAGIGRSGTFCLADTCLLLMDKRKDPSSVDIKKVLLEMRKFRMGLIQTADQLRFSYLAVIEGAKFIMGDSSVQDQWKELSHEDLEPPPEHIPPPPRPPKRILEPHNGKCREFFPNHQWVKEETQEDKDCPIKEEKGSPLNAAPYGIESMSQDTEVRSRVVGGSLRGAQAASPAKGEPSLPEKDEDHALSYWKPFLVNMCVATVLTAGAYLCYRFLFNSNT
Source text: The PTP1b cDNA was amplified from human placenta single strand cDNA (Clontech RNA) using the following oligonucleotides: 5′oligo: 5′-[…] (SEQ ID NO: 4) 3′oligo: 5′-[…] (SEQ ID NO: 5) It was subsequently ligated into pFasBac G2TBamH1Xba-1 sites.
as §1, §2, §3, §4, §5, §6

[1] = DiFMUP as substrate, 25° C., read-out: PTP IC50 Epilson
[2] = DiFMUP as substrate, 25° C., read-out: PTP IC50 1B

T2 sequence (P23469 80-393 limits assumed): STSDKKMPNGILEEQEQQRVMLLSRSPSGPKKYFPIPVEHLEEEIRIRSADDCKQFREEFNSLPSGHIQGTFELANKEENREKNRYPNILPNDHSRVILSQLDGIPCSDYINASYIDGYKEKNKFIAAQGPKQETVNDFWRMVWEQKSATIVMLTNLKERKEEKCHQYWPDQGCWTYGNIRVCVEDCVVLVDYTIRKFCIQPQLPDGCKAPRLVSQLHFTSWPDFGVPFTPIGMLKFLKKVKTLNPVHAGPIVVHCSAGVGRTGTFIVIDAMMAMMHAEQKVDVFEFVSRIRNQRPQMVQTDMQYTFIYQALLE

## O=C(Cc1ccccc1CC(=O)Nc1ccc(S(=O)(=O)C(F)(F)F)cc1)Nc1ccc(S(=O)(=O)C(F)(F)F)cc1 [Example 32, N-(4-Trifluoromethanesulfonyl-phenyl)-2-{2-[(4-trifluoromethanesulfonyl-phenylcarbamoyl)-methyl]-phenyl}-acetamide]
PTP SHP2
  IC50: 14.6 µM
PTP EPSILON; [1]
  IC50: 17.4 µM
PTP 1B; [2]
  IC50: 7.8 µM

## O=C(Cc1cccc(CC(=O)Nc2ccc(S(=O)(=O)C(F)(F)F)cc2)c1)Nc1ccc(S(=O)(=O)C(F)(F)F)cc1 [Example 33, N-(4-Trifluoromethanesulfonyl-phenyl)-2-{3-[(4-trifluoromethanesulfonyl-phenylcarbamoyl)-methyl]-phenyl}-acetamide]
PTP SHP2
  IC50: 2.3 µM
PTP EPSILON; [1]
  IC50: 20.4 µM
PTP 1B; [2]
  IC50: 2.3 µM

## O=C(Cc1ccc(CC(=O)Nc2ccc(S(=O)(=O)C(F)(F)F)cc2)cc1)Nc1ccc(S(=O)(=O)C(F)(F)F)cc1 [Example 34, N-(4-Trifluoromethanesulfonyl-phenyl)-2-{4-[(4-trifluoromethanesulfonyl-phenylcarbamoyl)-methyl]-phenyl}-acetamide]
PTP SHP2
  IC50: 2.3 µM
PTP EPSILON; [1]
  IC50: 9.1 µM
PTP 1B; [2]
  IC50: 3.9 µM

## CCn1c(-c2ccc(C(=O)OC)cc2)nc2cc(S(=O)(=O)C(F)(F)F)ccc21 [Example 35, 4-(1-Ethyl-5-trifluoromethanesulfonyl-1H-benzoimidazol-2-yl)-benzoic acid methyl ester]
PTP SHP2
  IC50: 31.6 µM
PTP EPSILON; [1]
  IC50: 32.5 µM

## CCn1c(-c2ccc(C(=O)O)cc2)nc2cc(S(=O)(=O)C(F)(F)F)ccc21 [Example 36, 4-(1-Ethyl-5-trifluoromethanesulfonyl-1H-benzoimidazol-2-yl)-benzoic acid]
PTP SHP2
  IC50: 58 µM
PTP EPSILON; [1]
  IC50: 61.2 µM
PTP 1B; [2]
  IC50: > 20 µM

## CCn1c(-c2ccc(C(=O)Nc3ccncc3)cc2)nc2cc(S(=O)(=O)C(F)(F)F)ccc21 [Example 37, 4-(1-Ethyl-5-trifluoromethanesulfonyl-1H-benzoimidazol-2-yl)-N-pyridin-4-yl-benzamide]
PTP SHP2
  IC50: 19 µM
PTP EPSILON; [1]
  IC50: 20.5 µM
PTP 1B; [2]
  IC50: > 20 µM

## CCn1c(-c2ccc(C(=O)Nc3ccc(OC)cc3)cc2)nc2cc(S(=O)(=O)C(F)(F)F)ccc21 [Example 38, 4-(1-Ethyl-5-trifluoromethanesulfonyl-1H-benzoimidazol-2-yl)-N-(4-methoxy-phenyl)-benzamide]
PTP SHP2
  IC50: 1.1 µM
PTP EPSILON; [1]
  IC50: 5.1 µM
PTP 1B; [2]
  IC50: 1.1 µM

## CCOC(=O)CNC(=O)C(c1ccc(S(=O)(=O)C(F)(F)F)cc1)N(C)C(C)=O (centres unmarked) [Example 47, [2-(Acetyl-methyl-amino)-2-(4-trifluoromethanesulfonyl-phenyl)-acetylamino]-acetic acid ethyl ester]
PTP SHP2
  IC50: > 100 µM

## CCOC(=O)CNC(=O)C(c1ccc(S(=O)(=O)C(F)(F)F)cc1)N(C(=O)c1ccccc1)C1CCCCC1 (centres unmarked) [Example 48, [2-(Benzoyl-cyclohexyl-amino)-2-(4-trifluoromethanesulfonyl-phenyl)-acetylamino]-acetic acid ethyl ester]
PTP SHP2
  IC50: 37.7 µM
PTP 1B; [2]
  IC50: 22.7 µM

## CCOC(=O)c1cc(Oc2ccc(S(=O)(=O)C(F)(F)F)cc2[N+](=O)[O-])c(C(=O)OCC)cc1Oc1ccc(S(=O)(=O)C(F)(F)F)cc1[N+](=O)[O-] [Example 54, 2,5-Bis-(2-nitro-4-trifluoromethanesulfonyl-phenoxy)-terephthalic acid diethyl ester]
PTP SHP2
  IC50: 0.7 µM
PTP 1B; [2]
  IC50: > 20 µM

## O=[N+]([O-])c1cc(S(=O)(=O)C(F)(F)F)ccc1OCC(CN1CCCCC1)Oc1ccc(S(=O)(=O)C(F)(F)F)cc1[N+](=O)[O-] (centres unmarked) [Example 55, 1-[2,3-Bis-(2-nitro-4-trifluoromethanesulfonyl-phenoxy)-propyl]-piperidine]
PTP SHP2
  IC50: 3.3 µM
PTP EPSILON; [1]
  IC50: 2.4 µM

## O=[N+]([O-])c1cc(S(=O)(=O)C(F)(F)F)ccc1OCC(CN1CCOCC1)Oc1ccc(S(=O)(=O)C(F)(F)F)cc1[N+](=O)[O-] (centres unmarked) [Example 56, 4-[2,3-Bis-(2-nitro-4-trifluoromethanesulfonyl-phenoxy)-propyl]-morpholine]
PTP SHP2
  IC50: 2.9 µM
PTP 1B; [2]
  IC50: 4.8 µM

## O=[N+]([O-])c1ccccc1NCC(COc1ccc(S(=O)(=O)C(F)(F)F)cc1[N+](=O)[O-])Oc1ccc(S(=O)(=O)C(F)(F)F)cc1[N+](=O)[O-] (centres unmarked) [Example 57, [2,3-Bis-(2-nitro-4-trifluoromethanesulfonyl-phenoxy)-propyl]-(2-nitro-phenyl)-amine]
PTP EPSILON
  IC50: 0.6 µM
PTP 1B
  IC50: > 20 µM

## NS(=O)(=O)c1ccc(NCC(O)COc2ccc(S(=O)(=O)C(F)(F)F)cc2[N+](=O)[O-])cc1 (centres unmarked) [Example 61, 4-[2-Hydroxy-3-(2-nitro-4-trifluoromethanesulfonyl-phenoxy)-propylamino]-benzenesulfonamide]
PTP SHP2
  IC50: 1.7 µM
PTP EPSILON; [1]
  IC50: 7.4 µM

## NS(=O)(=O)c1ccc(NCC(COc2ccc(S(=O)(=O)C(F)(F)F)cc2[N+](=O)[O-])Oc2ccc(S(=O)(=O)C(F)(F)F)cc2[N+](=O)[O-])cc1 (centres unmarked) [Example 62, 4-[2,3-Bis-(2-nitro-4-trifluoromethanesulfonyl-phenoxy)-propylamino]-benzenesulfonamide]
PTP SHP2
  IC50: 2.3 µM
PTP EPSILON; [1]
  IC50: 5.7 µM

## O=S(=O)(c1ccc(-c2ncc(-c3ccc4ccccc4c3)o2)cc1)C(F)F [Example 64, 2-[4-(Difluoro-methanesulfonyl)-phenyl]-5-naphthalen-2-yl-oxazole]
PTP SHP2
  IC50: 5.9 µM
PTP 1B; [2]
  IC50: 5.4 µM

## Cc1ccc(Nc2ccc(S(=O)(=O)C(F)(F)C(F)F)cc2[N+](=O)[O-])cc1 [Example 65, [2-Nitro-4-(1,1,2,2-tetrafluoro-ethanesulfonyl)-phenyl]-p-tolyl-amine]
PTP SHP2
  IC50: 13.1 µM
PTP 1B; [2]
  IC50: 11.5 µM

## Cc1cc2cc(NS(=O)(=O)C(F)(F)F)ccc2n1CC(=O)Nc1ccc(C(=O)O)cc1 [Example 85, 4-[2-(2-Methyl-5-trifluoromethanesulfonylamino-indol-1-yl)-acetylamino]-benzoic acid]
PTP EPSILON; [1]
  IC50: > 20 µM
PTP 1B; [2]
  IC50: 17.4 µM

Reference: patent US6596772B1, “Phosphate mimics and methods of treatment using phosphatase inhibitors” (Sugen, Inc., priority 1999, dated 2003)
